Results reported in ChEMBL document CHEMBL3885861, “Open TG-GATES”.

Organism: Rattus norvegicus
Assay: Open TG-GATES - Regimen: Single
Type: toxicity, organism-based, Sprague-Dawley
Set-up: regimen Single, gender Male, age 6 weeks
Settings: in vivo, po, 100 mg/kg, route gavage, dose level High; for APTT / Bas / Eos / Fbg / Hb / Ht / Lym / MCH / MCHC / MCV / Mono / Neu / PT / Plat / RBC / Ret / WBC: tissue Blood; for KIDNEY_L / KIDNEY_R / KIDNEY_TOTAL: tissue Kidney; for LIVER: tissue Liver; for A/G / ALP / ALT / AST / BUN / CRE / Ca / Cl / DBIL / GLC / IP / K / LDH / Na / PL / RALB / TBIL / TC / TG / TP / gamma-GTP: tissue Plasma

## CN(C)CCN(Cc1cccs1)c1ccccn1
9 h
  TERMINAL_BW: 183.7 g
  APTT: 21.3 s
  Bas: 0%
  Eos: 0.8%
  Fbg: 284.6 mg/dL
  Hb: 13.2 g/dL
  Ht: 39.6%
  Lym: 72.2%
  MCH: 21.1 pg
  MCHC: 33.3%
  MCV: 63.5 fL
  Mono: 3.6%
  Neu: 22.6%
  PT: 16.2 s
  Plat: 122.3 x10_4/uL
  RBC: 624.2 x10_4/ul
  Ret: 7.6%
  WBC: 71.6 x10_2/uL
  KIDNEY_L: 0.8 g
  KIDNEY_R: 0.9 g
  KIDNEY_TOTAL: 1.7 g
  LIVER: 7.8 g
  A/G: 1.2
  ALP: 1538 IU/L
  ALT: 60.2 IU/L
  AST: 100.6 IU/L
  BUN: 11 mg/dL
  CRE: 0.1 mg/dL
  Ca: 10.1 mg/dL
  Cl: 107.6 meq/L
  DBIL: 0 mg/dL
  GLC: 172.8 mg/dL
  IP: 9.7 mg/dL
  K: 4.2 meq/L
  LDH: 233.6 IU/L
  Na: 141.8 meq/L
  PL: 117 mg/dL
  RALB: 2.9 g/dL
  TBIL: 0.022 mg/dL
  TC: 68 mg/dL
  TG: 35 mg/dL
  TP: 5.3 g/dL
  gamma-GTP: 1.2 IU/L
24 h
  TERMINAL_BW: 193.3 g
  APTT: 20.8 s
  Bas: 0%
  Eos: 0.8%
  Fbg: 275.2 mg/dL
  Hb: 13 g/dL
  Ht: 39.4%
  Lym: 73.2%
  MCH: 20.7 pg
  MCHC: 32.9%
  MCV: 62.9 fL
  Mono: 2.8%
  Neu: 22.2%
  PT: 17.3 s
  Plat: 114.4 x10_4/uL
  RBC: 627 x10_4/ul
  Ret: 7%
  WBC: 61.6 x10_2/uL
  KIDNEY_L: 0.8 g
  KIDNEY_R: 0.9 g
  KIDNEY_TOTAL: 1.7 g
  LIVER: 9.1 g
  A/G: 1.3
  ALP: 1813.6 IU/L
  ALT: 68.4 IU/L
  AST: 109.6 IU/L
  BUN: 16 mg/dL
  CRE: 0.2 mg/dL
  Ca: 10.7 mg/dL
  Cl: 106.6 meq/L
  DBIL: 0.004 mg/dL
  GLC: 172 mg/dL
  IP: 7.8 mg/dL
  K: 4.4 meq/L
  LDH: 260.2 IU/L
  Na: 143.2 meq/L
  PL: 136 mg/dL
  RALB: 2.9 g/dL
  TBIL: 0.01 mg/dL
  TC: 70.8 mg/dL
  TG: 65.2 mg/dL
  TP: 5.2 g/dL
  gamma-GTP: 1 IU/L
